Reference: ChEMBL document CHEMBL5113453, “Design, synthesis, and biological evaluation of a new series of pyrazole derivatives: Discovery of potent and selective JNK3 kinase inhibitors” (Bioorg Med Chem, 2022)

Columns and labels:
Format in all cases: functional, cell-based
[1] = system: SF-539; assay: Antiproliferative activity against human SF-539 cells measured after 48 hrs by SRB assay; settings: for IC50: SF-539, 48 h; for TGI: SF-539, time 48 hrs
[2] = system: T47D; assay: Antiproliferative activity against human T47D cells measured after 48 hrs by SRB assay; settings: for IC50: 48 h; for TGI: time 48 hrs
[3] = system: NCI-H226; assay: Antiproliferative activity against human NCI-H226 cells measured after 48 hrs by SRB assay; settings: for IC50: NCI-H226, 48 h; for TGI: NCI-H226, time 48 hrs
[4] = system: HCC 2998; assay: Antiproliferative activity against human HCC 2998 cells measured after 48 hrs by SRB assay; settings: for IC50: HCC 2998, 48 h; for TGI: HCC 2998, time 48 hrs
[5] = system: Malme-3M; assay: Antiproliferative activity against human Malme-3M cells measured after 48 hrs by SRB assay; settings: for IC50: 48 h; for TGI: time 48 hrs
[6] = system: IGROV-1; assay: Antiproliferative activity against human IGROV-1 cells measured after 48 hrs by SRB assay; settings: for IC50: IGROV-1, 48 h; for TGI: IGROV-1, time 48 hrs
[7] = system: SR; assay: Antiproliferative activity against human SR cells measured after 48 hrs by SRB assay; settings: for IC50: 48 h; for TGI: time 48 hrs
[8] = system: NCI-H23; assay: Antiproliferative activity against human NCI-H23 cells measured after 48 hrs by SRB assay; settings: for IC50: NCI-H23, 48 h; for TGI: NCI-H23, time 48 hrs
[9] = system: SNB-19; assay: Antiproliferative activity against human SNB-19 cells measured after 48 hrs by SRB assay; settings: for IC50: SNB-19, 48 h; for TGI: SNB-19, time 48 hrs
[10] = system: HT-29; assay: Antiproliferative activity against human HT-29 cells measured after 48 hrs by SRB assay; settings: for IC50: HT-29, 48 h; for TGI: HT-29, time 48 hrs
[11] = system: U-251; assay: Antiproliferative activity against human U-251 cells measured after 48 hrs by SRB assay; settings: for IC50: U-251, 48 h; for TGI: U-251, time 48 hrs
[12] = system: HOP-62; assay: Antiproliferative activity against human HOP-62 cells measured after 48 hrs by SRB assay; settings: for IC50: HOP-62, 48 h; for TGI: HOP-62, time 48 hrs
[13] = system: SN12C; assay: Antiproliferative activity against human SN12C cells measured after 48 hrs by SRB assay; settings: for IC50: 48 h; for TGI: time 48 hrs
[14] = system: BT-549; assay: Antiproliferative activity against human BT-549 cells measured after 48 hrs by SRB assay; settings: for IC50: BT-549, 48 h; for TGI: BT-549, time 48 hrs
[15] = system: EKVX; assay: Antiproliferative activity against human EKVX cells measured after 48 hrs by SRB assay; settings: for IC50: 48 h; for TGI: time 48 hrs
[16] = system: 786-0; assay: Antiproliferative activity against human 786-0 cells measured after 48 hrs by SRB assay; settings: for IC50: 786-0, 48 h; for TGI: 786-0, time 48 hrs
[17] = system: NCI-H522; assay: Antiproliferative activity against human NCI-H522 cells measured after 48 hrs by SRB assay; settings: for IC50: NCI-H522, 48 h; for TGI: NCI-H522, time 48 hrs
[18] = system: HCT-15; assay: Antiproliferative activity against human HCT-15 cells measured after 48 hrs by SRB assay; settings: for IC50: HCT-15, 48 h; for TGI: HCT-15, time 48 hrs
[19] = system: Hs-578T; assay: Antiproliferative activity against human Hs-578T cells measured after 48 hrs by SRB assay; settings: for IC50: 48 h; for TGI: time 48 hrs
[20] = system: UO-31; assay: Antiproliferative activity against human UO-31 cells measured after 48 hrs by SRB assay; settings: for IC50: UO-31, 48 h; for TGI: UO-31, time 48 hrs
[21] = system: DU-145; assay: Antiproliferative activity against human DU-145 cells measured after 48 hrs by SRB assay; settings: for IC50: DU-145, 48 h; for TGI: DU-145, time 48 hrs
[22] = system: OVCAR-8; assay: Antiproliferative activity against human OVCAR-8 cells measured after 48 hrs by SRB assay; settings: for IC50: OVCAR-8, 48 h; for TGI: OVCAR-8, time 48 hrs
[23] = system: MCF7; assay: Antiproliferative activity against human MCF7 cells measured after 48 hrs by SRB assay; settings: for IC50: MCF7, 48 h; for TGI: MCF7, time 48 hrs

Work on `O=C(Nc1ccc(Cl)c(C(F)(F)F)c1)N1CCN(c2cc(-c3cn(-c4ccccc4)nc3-c3cccc(O)c3)ccn2)CC1` yielded an IC50 [1] of 4.21 µM, a TGI [1] greater than 22 µM and an IC50 [2] of 1.13 µM. The TGI [2] was 14.8 µM, the IC50 [3] was 3.22 µM and the TGI [3] was 15.8 µM. The IC50 [4] was 6.1 µM, the TGI [4] was greater than 22 µM and the IC50 [5] was 3.3 µM. The TGI [5] was 8.95 µM, the IC50 [6] was 5.11 µM and the TGI [6] was greater than 22 µM. For the same molecule, the IC50 [7] was 3.07 µM, the TGI [7] was greater than 22 µM and the IC50 [8] was 3.69 µM. It also gave a TGI [8] of 14.9 µM, an IC50 [9] of 4.06 µM and a TGI [9] greater than 22 µM. It also gave an IC50 [10] of 4.1 µM, a TGI [10] greater than 22 µM and an IC50 [11] of 4.23 µM. The TGI [11] was greater than 22 µM, the IC50 [12] was 6.28 µM and the TGI [12] was greater than 22 µM. The IC50 [13] was 3.21 µM, the TGI [13] was greater than 22 µM and the IC50 [14] was 3.33 µM. It also gave a TGI [14] of 7.99 µM, an IC50 [15] of 2.57 µM and a TGI [15] of 19.6 µM. It also gave an IC50 [16] of 4.02 µM, a TGI [16] greater than 22 µM and an IC50 [17] of 2.77 µM. It also gave a TGI [17] of 9.26 µM, an IC50 [18] of 2.84 µM and a TGI [18] greater than 22 µM. For the same molecule, the IC50 [19] was 3.39 µM, the TGI [19] was 15.8 µM and the IC50 [20] was 3 µM. It also gave a TGI [20] greater than 22 µM, an IC50 [21] of 7.15 µM and a TGI [21] greater than 22 µM. It also gave an IC50 [22] of 4.72 µM, a TGI [22] greater than 22 µM and an IC50 [23] of 1.8 µM. For the same molecule, the TGI [23] was 10.1 µM.

In the case of `O=C1c2ccccc2-c2n[nH]c3cccc1c23`, the IC50 [1] is reported as 32.2 µM, the TGI [1] is reported as greater than 100 µM and the IC50 [2] is reported as greater than 100 µM. The TGI [2] was greater than 100 µM, the IC50 [3] was 22.9 µM and the TGI [3] was greater than 100 µM. It also gave an IC50 [4] of 9.62 µM, a TGI [4] of 54.6 µM and an IC50 [5] of 16.4 µM. For the same molecule, the TGI [5] was 58.9 µM, the IC50 [6] was 11.3 µM and the TGI [6] was greater than 100 µM. For the same molecule, the IC50 [7] was 13.1 µM, the TGI [7] was greater than 100 µM and the IC50 [8] was 23.8 µM. It also gave a TGI [8] of 58.1 µM, an IC50 [9] of 50 µM and a TGI [9] greater than 100 µM. For the same molecule, the IC50 [10] was 25.9 µM, the TGI [10] was greater than 100 µM and the IC50 [11] was 23.1 µM. For the same molecule, the TGI [11] was greater than 100 µM, the IC50 [12] was 69.3 µM and the TGI [12] was greater than 100 µM. It also gave an IC50 [13] of 14.8 µM, a TGI [13] greater than 100 µM and an IC50 [14] of 30.8 µM. It also gave a TGI [14] greater than 100 µM, an IC50 [15] of 20 µM and a TGI [15] greater than 100 µM. It also gave an IC50 [16] of 27.1 µM, a TGI [16] greater than 100 µM and an IC50 [17] of 12.2 µM. It also gave a TGI [17] of 50.4 µM, an IC50 [18] of 8.04 µM and a TGI [18] greater than 100 µM. It also gave an IC50 [19] of 55.1 µM, a TGI [19] greater than 100 µM and an IC50 [20] of 10.5 µM. The TGI [20] was greater than 100 µM, the IC50 [21] was 28.2 µM and the TGI [21] was greater than 100 µM. It also gave an IC50 [22] of 22 µM, a TGI [22] greater than 100 µM and an IC50 [23] of 49 µM. For the same molecule, the TGI [23] was greater than 100 µM.
